Values of other authors in patent US10028967B2, “Medicament” (Symrise AG, priority 2014, dated 2018).

Conditions: oral phenylephrine, compared to intravenous pseudoephedrine; reduced and variable

CNC[C@H](O)c1cccc(O)c1 [Phenylephrine]
bioavailability: up to 38%
